# Measurements from US7476680B2, “Substituted heterocyclic compounds for treating multidrug resistance” (H. Lee Moffitt Cancer Center & Research Institute, Inc., priority 2000, dated 2009).
# Legend:
# MDR1-ATPase = biological target: T1, MDR1-ATPase (Homo sapiens, UniProt P08183); assay: MDR1 ATPase assay (substrate potential for MDR1); type: biochemical; details: isolated Sf9 cell membranes; for Ki: half-maximum inhibition of MDR1-ATPase stimulated by 30-40 micromolar verapamil
# T1 construct: made in house; host or cells: Sf9 insect cells (baculovirus); isolated membranes
# Text: Method for Measuring Substrate Potential for MDR1 (MDR1 ATPase assay)
# Recombinant baculovirus carrying the human MDR1 gene was generated and Sf9 cells infected with virus. The virus-infected cells were harvested and their membranes isolated. MDR1-ATPase activity of the isolated Sf9 cell membranes was estimated by measuring inorganic phosphate liberation as previously described (B. Sarkadi, J. Biol. Chem., 1992, 267:4854-4858). The differences between the ATPase activities measured in the absence and presence of 100 micromolar vanadate were determined as activity specific to MDR1. MDR modulator concentrations causing half-maximum activation (Ka) or half-maximum inhibition of the MDR1-ATPase stimulated by 30-40 micromolar verapamil (Ki) were determined.
# NIH-MDR1-G185 cells = assay: Fluorescent substrate accumulation assay (BODIPY-FL Taxol); type: cell-based; details: BODIPY-FL Taxol 500 nM, modulator 10 micromolar, 40 min at 37° C.; fluorescence with modulator / without modulator
# Description: Fluorescent Substrate Accumulation Assay
# NIH-MDR1-G185 cells (obtained from M. Gottesman, NIH) were harvested and resuspended in RPMI-1640 containing L-glutamine, 10% Cosmic Calf Serum and penicillin-streptomycin. Cell suspension aliquots of 175 microliters (1×10^5 cells) were added to individual wells of a 96 well microtiter plate and preincubated for 15 min at 37° C. with 20 microliters MDR modulator diluted in cell culture media to give a final concentration of 10 micromolar. Control wells received no modulating agent. BODIPY-FL Taxol (Molecular Probes, Eugene, Oreg.) was added to each well in 10 microliter aliquots to give a final concentration of 500 nM and cells were incubated for 40 min at 37° C. Cells were centrifuged at 100×g for 5 min at 4° C. and the cell pellet washed with 200 microliters cold PBS to remove fluorescent medium from wells. Cells were centrifuged once more, media removed, and cells resuspended in 200 microliters cold PBS. Fluorescence accumulation was measured in a fluorescence plate reader fitted with an excitation filter of 485 nm and an emission filter of 538 nm. BODIPY-FL taxol accumulation in the cells was calculated as follows: Accumulation Index=(fluorescence in NIH-MDR1-G185 cells in the presence of modulator)/(fluorescence in NIH-MDR1-G185 cells in absence of modulator)
# [1] = concentration causing half-maximum activation of MDR1-ATPase
# T1 sequence (P08183 whole entry): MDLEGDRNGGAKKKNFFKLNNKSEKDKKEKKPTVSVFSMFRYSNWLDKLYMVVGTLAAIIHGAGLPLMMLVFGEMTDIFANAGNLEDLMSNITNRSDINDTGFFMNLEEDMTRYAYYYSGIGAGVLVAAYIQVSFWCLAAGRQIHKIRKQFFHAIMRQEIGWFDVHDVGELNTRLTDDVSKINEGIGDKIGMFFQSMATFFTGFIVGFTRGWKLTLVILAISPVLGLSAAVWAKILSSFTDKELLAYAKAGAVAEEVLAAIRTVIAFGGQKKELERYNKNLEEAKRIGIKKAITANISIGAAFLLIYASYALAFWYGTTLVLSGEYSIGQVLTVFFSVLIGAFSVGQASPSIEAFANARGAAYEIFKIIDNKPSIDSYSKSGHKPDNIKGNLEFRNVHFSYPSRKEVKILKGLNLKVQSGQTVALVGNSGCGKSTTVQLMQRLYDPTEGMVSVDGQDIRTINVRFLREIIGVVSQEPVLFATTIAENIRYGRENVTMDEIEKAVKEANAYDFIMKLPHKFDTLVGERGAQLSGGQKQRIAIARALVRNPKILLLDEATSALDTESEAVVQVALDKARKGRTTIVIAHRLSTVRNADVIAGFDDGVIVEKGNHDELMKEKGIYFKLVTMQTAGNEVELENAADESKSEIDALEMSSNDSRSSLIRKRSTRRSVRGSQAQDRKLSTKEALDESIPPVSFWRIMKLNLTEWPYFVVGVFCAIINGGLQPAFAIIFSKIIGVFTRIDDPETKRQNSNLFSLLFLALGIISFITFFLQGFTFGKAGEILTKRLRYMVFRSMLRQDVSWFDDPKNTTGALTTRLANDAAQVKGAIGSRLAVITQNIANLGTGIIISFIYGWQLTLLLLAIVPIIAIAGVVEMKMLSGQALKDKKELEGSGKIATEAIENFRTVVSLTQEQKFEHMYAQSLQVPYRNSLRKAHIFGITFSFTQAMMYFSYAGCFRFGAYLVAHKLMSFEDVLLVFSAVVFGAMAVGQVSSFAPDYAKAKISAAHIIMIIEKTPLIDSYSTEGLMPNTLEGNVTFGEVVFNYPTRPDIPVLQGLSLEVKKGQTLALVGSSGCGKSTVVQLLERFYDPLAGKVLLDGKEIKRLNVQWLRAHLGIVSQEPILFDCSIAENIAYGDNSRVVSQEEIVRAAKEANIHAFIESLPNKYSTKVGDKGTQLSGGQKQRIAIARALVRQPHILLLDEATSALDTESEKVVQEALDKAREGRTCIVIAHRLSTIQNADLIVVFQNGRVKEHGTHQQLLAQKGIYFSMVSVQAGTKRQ
Substrate Potential Ka(MDR1-ATPase) (MDR1-ATPase; [1]),Ki (MDR1-ATPase),"EC50 (MDR1-ATPase; concentration causing half-maximum activation of MDR1-ATPase, read-out: Substrate Potential Ka(MDR1-ATPase))",Compound,Accumulation Index (NIH-MDR1-G185 cells)
no activation,300 nM,–,"O=C(NC(CCCc1ccccc1)CCCc1ccccc1)C1CCN(C[C@@H](O)COc2cccc3ncccc23)CC1 [Example 5, (R)-1-[2-hydroxy-3-(quinolin-5-yloxy)-propyl]-piperidine-4-carboxylic acid [4-phenyl-1-(3-phenyl-propyl)-butyl]-amide]",–
no activation,500 nM,–,"COc1cc(C(=O)C(=O)N2CCCC(C(=O)NC(CCCc3ccccc3)CCCc3ccccc3)C2)cc(OC)c1OC (stereo not shown) [Example 26, 1-(3,4,5-trimethoxyglyoxyl)-piperidine-3-carboxylic acid [4-phenyl-1-(3-phenyl-propyl)-butyl]-amide]",–
–,10 nM,5 nM,"O=C(NC1CCN(C[C@H](O)COc2cccc3ncccc23)CC1)C(CCCc1ccccc1)CCCc1ccccc1 (stereo in doubt) [Example 25, 5-phenyl-2-(3-phenyl-propyl)-pentanoic acid {1-[2-hydroxy-3-(quinolin-5-yloxy)-propyl]-piperidin-4-yl}-amide]",–
no activation,20 nM,–,"O=C(NCCCCc1ccccc1)[C@H]1CN(C[C@@H](O)COc2cccc3ncccc23)CC[C@H]1C(=O)NCCCCc1ccccc1 (stereo in doubt) [Example 11, cis-(R)-1-[2-hydroxy-3-(quinolin-5-yloxy)-propyl]-piperidine-3,4-dicarboxylic acid bis-[(4-phenyl-butyl)-amide]]",–
no activation,1000 nM,–,"O=C(C1CCN(C[C@@H](O)COc2cccc3ncccc23)CC1)N(Cc1ccccc1)Cc1ccccc1 [Example 36, (R)-1-[2-hydroxy-3-(quinolin-5-yloxy)-propyl]-piperidine-4-carboxylic acid dibenzyl amide]",–
no activation,300 nM,–,O=C(NC(CCCc1ccccc1)CCCc1ccccc1)C1CCCN(C[C@@H](O)COc2cccc3ncccc23)C1 (stereo partly shown) [Example 14],–
–,–,–,(R)-1-[2-hydroxy-3-(quinolin-5-yloxy)-propyl]-piperidine-4-carboxylic acid [4-(3-pyridyl-1-(3-pyridyl-propyl)-butyl]-amide [Example 53],8
–,–,–,"CC1(C(=O)NC(CCCc2ccccc2)CCCc2ccccc2)CCN(C[C@@H](O)COc2cccc3ncccc23)CC1 [Example 50, (R)-1-[2-hydroxy-3-(quinolin-5-yloxy)-propyl]-methylpiperidine-4-carboxylic acid [4-phenyl-1-(3-phenyl-propyl)-butyl]-amide]",10
weak activation,> 50000 nM,–,COc1cc(OC[C@H](O)CN2CCCC(C(=O)NC(CCCc3ccccc3)CCCc3ccccc3)C2)cc(OC)c1OC (stereo partly shown) [Example 15],–
